Test system: 966289-007-R4-J1-PDC complex spheroid viability
Assay: Anticancer human tumor 966289-007-R4-J1-PDC patient-derived pancreatic adenocarcinoma cell line growth inhibition [GQUAD]
Conditions: for IC50: curve of first compound; for viability, T/C: stronger effect = lower value; active = viability on the fitted dose curve at most 10% of control; inactive = the rest
In short: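 Tumor cells were grown as complex spheroids with HUVEC endothelial cells and mesenchymal stem cells as stroma. G-quadruplex stabilizers were combined with targeted agents over half-log dilutions from near the clinical Cmax, or from 10 microM.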

[1] = second compound 0.0316 µM, first compound 0.0316 µM
[2] = second compound 0.0316 µM, first compound 0.1 µM
[3] = second compound 0.0316 µM, first compound 0.316 µM
[4] = second compound 0.0316 µM, first compound 1 µM
[5] = second compound 0.0316 µM, first compound 3.16 µM
[6] = second compound 0.0316 µM, first compound 10 µM
[7] = second compound 0.1 µM, first compound 0.0316 µM
[8] = second compound 0.1 µM, first compound 0.1 µM
[9] = second compound 0.1 µM, first compound 0.316 µM
[10] = second compound 0.1 µM, first compound 1 µM
[11] = second compound 0.1 µM, first compound 3.16 µM
[12] = second compound 0.1 µM, first compound 10 µM
[13] = second compound 0.316 µM, first compound 0.0316 µM
[14] = second compound 0.316 µM, first compound 0.1 µM
[15] = second compound 0.316 µM, first compound 0.316 µM
[16] = second compound 0.316 µM, first compound 1 µM
[17] = second compound 0.316 µM, first compound 3.16 µM
[18] = second compound 0.316 µM, first compound 10 µM
[19] = second compound 1 µM, first compound 0.0316 µM
[20] = second compound 1 µM, first compound 0.1 µM
[21] = second compound 1 µM, first compound 0.316 µM
[22] = second compound 1 µM, first compound 1 µM
[23] = second compound 1 µM, first compound 3.16 µM
[24] = second compound 1 µM, first compound 10 µM
[25] = second compound 3.16 µM, first compound 0.0316 µM
[26] = second compound 3.16 µM, first compound 0.1 µM
[27] = second compound 3.16 µM, first compound 0.316 µM
[28] = second compound 3.16 µM, first compound 1 µM
[29] = second compound 3.16 µM, first compound 3.16 µM
[30] = second compound 3.16 µM, first compound 10 µM
[31] = second compound 10 µM, first compound 0.0316 µM
[32] = second compound 10 µM, first compound 0.1 µM
[33] = second compound 10 µM, first compound 0.316 µM
[34] = second compound 10 µM, first compound 1 µM
[35] = second compound 10 µM, first compound 3.16 µM
[36] = second compound 10 µM, first compound 10 µM
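Also: spheroids exposed to the agents for seven days before readout.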
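For viability, T/C in this document: percent viability relative to DMSO vehicle control wells taken as 100%.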

C#Cc1c(F)ccc2cc(O)cc(-c3ncc4c(N5CC6CCC(C5)N6)nc(OCC56CCCN5CC(F)C6)nc4c3F)c12 (stereo unspecified) + Cc1cnc(CNC(=O)c2c(=O)c3ccc(N4CCCN(C)CC4)nc3n3c2sc2ccccc23)cn1
> 10000 nM: IC50 (second compound 0.0316 µM)
active: viability, T/C [19] 6% | viability, T/C [20] 4.8% | viability, T/C [21] 5.85% | viability, T/C [22] 6.1% | viability, T/C [23] 6.94% | viability, T/C [24] 2.87% | viability, T/C [25] 4.4% | viability, T/C [26] 5.02% | viability, T/C [27] 5.21% | viability, T/C [28] 4.53% | viability, T/C [29] 4.58% | viability, T/C [30] 0.22% | viability, T/C [31] 0.1% | viability, T/C [32] 0.14% | viability, T/C [33] 0.14% | viability, T/C [34] 0.28% | viability, T/C [35] 0.16% | viability, T/C [36] 0.11%
inactive: viability, T/C [1] 114% | viability, T/C [2] 114% | viability, T/C [3] 111% | viability, T/C [4] 116% | viability, T/C [5] 122% | viability, T/C [6] 114% | viability, T/C [7] 38.4% | viability, T/C [8] 31.4% | viability, T/C [9] 34.2% | viability, T/C [10] 31.9% | viability, T/C [11] 40.5% | viability, T/C [12] 33.9% | viability, T/C [13] 10.9% | viability, T/C [14] 11.8% | viability, T/C [15] 13.7% | viability, T/C [16] 12.7% | viability, T/C [17] 11% | viability, T/C [18] 7.05%
< 31.6 nM: IC50 (second compound 0.1 µM) | IC50 (second compound 0.316 µM) | IC50 (second compound 1 µM) | IC50 (second compound 3.16 µM) | IC50 (second compound 10 µM)

CC(C)(O)C1CCC(Nc2ccc3ncc(-c4cccc(C(F)(F)F)c4)n3n2)CC1 (stereo unspecified) + Cc1cnc(CNC(=O)c2c(=O)c3ccc(N4CCCN(C)CC4)nc3n3c2sc2ccccc23)cn1
inactive: viability, T/C [1] 103% | viability, T/C [2] 105% | viability, T/C [3] 108% | viability, T/C [4] 97.3% | viability, T/C [5] 22% | viability, T/C [6] 16.9% | viability, T/C [7] 32% | viability, T/C [8] 29.9% | viability, T/C [9] 35.4% | viability, T/C [10] 26% | viability, T/C [11] 5.94% | viability, T/C [13] 8.94%
< 31.6 nM: IC50 (second compound 0.1 µM) | IC50 (second compound 0.316 µM) | IC50 (second compound 1 µM) | IC50 (second compound 3.16 µM) | IC50 (second compound 10 µM)
active: viability, T/C [12] 7.03% | viability, T/C [14] 10.5% | viability, T/C [15] 9.21% | viability, T/C [16] 9.55% | viability, T/C [17] 3.64% | viability, T/C [18] 2.73% | viability, T/C [19] 6.09% | viability, T/C [20] 5.79% | viability, T/C [21] 5.01% | viability, T/C [22] 4.88% | viability, T/C [23] 0.44% | viability, T/C [24] 0.4% | viability, T/C [25] 3.22% | viability, T/C [26] 4.22% | viability, T/C [27] 3.14% | viability, T/C [28] 0.95% | viability, T/C [29] 0.08% | viability, T/C [30] 0.08% | viability, T/C [31] 0.04% | viability, T/C [32] 0.09% | viability, T/C [33] 0.14% | viability, T/C [34] 0.13% | viability, T/C [35] 0.14% | viability, T/C [36] 0.14%
2060 nM: IC50 (second compound 0.0316 µM)

CCCS(=O)(=O)Nc1ccc(F)c(C(=O)c2c[nH]c3ncc(-c4ccc(Cl)cc4)cc23)c1F + Cc1cnc(CNC(=O)c2c(=O)c3ccc(N4CCCN(C)CC4)nc3n3c2sc2ccccc23)cn1
inactive: viability, T/C [1] 117% | viability, T/C [2] 109% | viability, T/C [3] 111% | viability, T/C [4] 99.9% | viability, T/C [5] 89.8% | viability, T/C [6] 27.1% | viability, T/C [7] 34.8% | viability, T/C [8] 34.5% | viability, T/C [9] 32% | viability, T/C [10] 26.7% | viability, T/C [11] 25.5% | viability, T/C [12] 16.1% | viability, T/C [13] 11.4% | viability, T/C [14] 10.7%
active: viability, T/C [15] 8.91% | viability, T/C [16] 8.64% | viability, T/C [17] 9.45% | viability, T/C [18] 8.17% | viability, T/C [19] 6.02% | viability, T/C [20] 7.02% | viability, T/C [21] 5.64% | viability, T/C [22] 4.34% | viability, T/C [23] 4.77% | viability, T/C [24] 3.64% | viability, T/C [25] 4.08% | viability, T/C [26] 4.51% | viability, T/C [27] 4.86% | viability, T/C [28] 3.92% | viability, T/C [29] 3.36% | viability, T/C [30] 1.47% | viability, T/C [31] 0.08% | viability, T/C [32] 0.11% | viability, T/C [33] 0.13% | viability, T/C [34] 0.26% | viability, T/C [35] 0.86% | viability, T/C [36] 0.14%
< 31.6 nM: IC50 (second compound 0.1 µM) | IC50 (second compound 0.316 µM) | IC50 (second compound 1 µM) | IC50 (second compound 3.16 µM) | IC50 (second compound 10 µM)
6500 nM: IC50 (second compound 0.0316 µM)

Source: PubChem BioAssay AID2060488 (Molecular Pharmacology Branch, DTP, NCI, 2025)
